Patent publication US20060141122A1 (Universitat De Les Illes Balears and Industrias Agricolas …, priority 1999, published 2006)
Where a name gives a salt, the structure may show the parent alone.

Columns and labels:
[1] = test system: urinary risk of forming calcium kidney stones; test: Urinary risk of forming calcium kidney stones, study on 74 individuals with oxalocalcium kidney stones; assay type: in vivo, human; details: for drop of the risk of forming calcium stones: 15 days after treatment start, citrate 6.48 g/day, phytate 120 mg/day, individuals with oxalocalcium kidney stones
Description: These individuals have been divided into three groups: 19 individuals with kidney stones (Group I), 38 individuals with kidney stones (Group II) and 17 individuals with kidney stones (Group III). The urinary risk to form calcium kidney stones was evaluated for each individual before being subjected to any pharmacological treatment.
15 days after treatment starting, the urinary risk of forming calcium kidney stones was evaluated again for each individual.

[2] = Urinary excretion of phytate after dietary intake; assay type: in vivo
[3] = cited from earlier work

SMILES | drop of the risk of forming calcium stones [1] | maximum urinary excretion as share of the total intake ([2]; diet supplemented with products rich in phytates) | intake above which the excreted amount in urine does not increase ([2]; urinary excretion, dose-dependent up to this intake) | effect on urine pH ([1]; treatment of calcium kidney stones, compared with citrate) | effect on bioavailability of oligoelements such as Zn(II) and Fe(III) ([3]; doses in which maximum excretions are produced) | toxicity ([3]; megadose of 8.8 g/day)
O=C(O)CC(O)(CC(=O)O)C(=O)O [citrate, potassium citrate, reference compound] | 52% | – | – | – | – | –
O=P(O)(O)O[C@H]1[C@H](OP(=O)(O)O)[C@@H](OP(=O)(O)O)[C@H](OP(=O)(O)O)[C@@H](OP(=O)(O)O)[C@H]1OP(=O)(O)O [phytate, inositol hexaphosphate] | 50% | 1-5% | 20.9 mg/kg of body weight | does not cause increases of the urine pH | do not affect the bioavailability | does not produce any toxicity
